Measured values reported in US9855203B2, “Preserving personal care compositions” (The Procter & Gamble Company, priority 2013, dated 2018).

test: Log water solubility of preservatives; details: logarithm base 10 of molar solubility at 25° C.; from experimental solubility or Chemsilico CS log WSo-3.0

Log (water Solubility in mol/L) | SMILES
−3.15 mol/L | C=CCCCCCCCCC(=O)O [Undecylenic Acid]
−3.08 mol/L | CCCCCCC(O)CO (stereo not shown) [caprylyl glycol]
−0.33 mol/L | C/C=C/C=C/C(=O)O [sorbic acid]

Continued, compound first:

SMILES | Log (water Solubility in mol/L)
O=C(O)c1ccccc1O [Salicylic acid] | −1.41 mol/L
OCc1ccccc1 [benzyl Alcohol] | −0.47 mol/L
CCOC(=O)c1ccc(O)cc1 [ethyl paraben] | −1.91 mol/L
OCCc1ccccc1 [phenethyl alcohol] | −0.83 mol/L
